Laboratory results published in ChEMBL document CHEMBL2417377, “Hit-to-lead optimization and kinase selectivity of imidazo[1,2-a]quinoxalin-4-amine derived JNK1 inhibitors” (Bioorg Med Chem Lett, 2013).

How the values were obtained:
[1] = target: Tyrosine-protein kinase Fyn (Homo sapiens) (UniProt P06241); test: Inhibition of FYN in human PC3 cell lysates at 10 uM using desthiobiotin-tagged ATP probe AX9989 followed by trypsinization by LC/MS analysis; settings: PC-3
[2] = target: T1, Dual specificity mitogen-activated protein kinase kinase 3 (Homo sapiens) (UniProt P46734); test: Inhibition of MAP2K3 in human PC3 cell lysates at 10 uM using desthiobiotin-tagged ATP probe AX9989 followed by trypsinization by LC/MS analysis; settings: PC-3
T1 sequence (whole entry): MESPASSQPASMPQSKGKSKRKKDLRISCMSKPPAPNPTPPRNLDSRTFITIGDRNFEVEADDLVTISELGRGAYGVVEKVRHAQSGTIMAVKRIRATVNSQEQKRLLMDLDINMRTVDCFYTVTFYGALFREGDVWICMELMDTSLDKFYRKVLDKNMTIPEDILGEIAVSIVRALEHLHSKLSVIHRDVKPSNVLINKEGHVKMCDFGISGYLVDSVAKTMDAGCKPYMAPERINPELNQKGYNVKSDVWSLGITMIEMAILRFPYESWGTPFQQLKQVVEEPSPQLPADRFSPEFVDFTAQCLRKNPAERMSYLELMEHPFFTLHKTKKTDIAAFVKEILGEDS

[3] = target: MAP/microtubule affinity-regulating kinase 3 (Homo sapiens) (UniProt P27448); test: Inhibition of MARK3 in human PC3 cell lysates at 10 uM using desthiobiotin-tagged ATP probe AX9989 followed by trypsinization by LC/MS analysis; settings: PC-3
Sequence of MAP/microtubule affinity-regulating kinase 3 (Homo sapiens) (P27448 whole entry, looked up): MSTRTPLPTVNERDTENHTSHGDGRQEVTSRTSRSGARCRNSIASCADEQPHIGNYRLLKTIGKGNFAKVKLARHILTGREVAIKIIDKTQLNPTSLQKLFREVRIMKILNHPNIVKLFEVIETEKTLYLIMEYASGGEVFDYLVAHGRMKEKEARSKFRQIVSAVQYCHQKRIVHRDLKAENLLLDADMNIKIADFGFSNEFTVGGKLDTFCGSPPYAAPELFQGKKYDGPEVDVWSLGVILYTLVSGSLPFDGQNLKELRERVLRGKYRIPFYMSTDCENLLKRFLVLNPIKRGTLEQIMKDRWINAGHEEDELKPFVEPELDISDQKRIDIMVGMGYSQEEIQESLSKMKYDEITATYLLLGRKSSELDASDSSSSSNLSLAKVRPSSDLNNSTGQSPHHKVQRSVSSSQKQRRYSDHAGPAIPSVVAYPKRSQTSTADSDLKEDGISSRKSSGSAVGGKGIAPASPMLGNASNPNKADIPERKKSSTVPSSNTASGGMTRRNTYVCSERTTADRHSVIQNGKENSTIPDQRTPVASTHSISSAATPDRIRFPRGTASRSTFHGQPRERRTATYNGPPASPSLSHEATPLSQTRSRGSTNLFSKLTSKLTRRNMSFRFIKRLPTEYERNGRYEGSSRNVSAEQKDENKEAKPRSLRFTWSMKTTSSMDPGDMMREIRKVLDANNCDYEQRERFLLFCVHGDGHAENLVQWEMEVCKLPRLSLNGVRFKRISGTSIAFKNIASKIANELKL

[4] = target: T2, Eukaryotic translation initiation factor 2-alpha kinase 3 (Homo sapiens) (UniProt Q9NZJ5); test: Inhibition of PEK in human PC3 cell lysates at 10 uM using desthiobiotin-tagged ATP probe AX9989 followed by trypsinization by LC/MS analysis; settings: PC-3
T2 sequence (whole entry): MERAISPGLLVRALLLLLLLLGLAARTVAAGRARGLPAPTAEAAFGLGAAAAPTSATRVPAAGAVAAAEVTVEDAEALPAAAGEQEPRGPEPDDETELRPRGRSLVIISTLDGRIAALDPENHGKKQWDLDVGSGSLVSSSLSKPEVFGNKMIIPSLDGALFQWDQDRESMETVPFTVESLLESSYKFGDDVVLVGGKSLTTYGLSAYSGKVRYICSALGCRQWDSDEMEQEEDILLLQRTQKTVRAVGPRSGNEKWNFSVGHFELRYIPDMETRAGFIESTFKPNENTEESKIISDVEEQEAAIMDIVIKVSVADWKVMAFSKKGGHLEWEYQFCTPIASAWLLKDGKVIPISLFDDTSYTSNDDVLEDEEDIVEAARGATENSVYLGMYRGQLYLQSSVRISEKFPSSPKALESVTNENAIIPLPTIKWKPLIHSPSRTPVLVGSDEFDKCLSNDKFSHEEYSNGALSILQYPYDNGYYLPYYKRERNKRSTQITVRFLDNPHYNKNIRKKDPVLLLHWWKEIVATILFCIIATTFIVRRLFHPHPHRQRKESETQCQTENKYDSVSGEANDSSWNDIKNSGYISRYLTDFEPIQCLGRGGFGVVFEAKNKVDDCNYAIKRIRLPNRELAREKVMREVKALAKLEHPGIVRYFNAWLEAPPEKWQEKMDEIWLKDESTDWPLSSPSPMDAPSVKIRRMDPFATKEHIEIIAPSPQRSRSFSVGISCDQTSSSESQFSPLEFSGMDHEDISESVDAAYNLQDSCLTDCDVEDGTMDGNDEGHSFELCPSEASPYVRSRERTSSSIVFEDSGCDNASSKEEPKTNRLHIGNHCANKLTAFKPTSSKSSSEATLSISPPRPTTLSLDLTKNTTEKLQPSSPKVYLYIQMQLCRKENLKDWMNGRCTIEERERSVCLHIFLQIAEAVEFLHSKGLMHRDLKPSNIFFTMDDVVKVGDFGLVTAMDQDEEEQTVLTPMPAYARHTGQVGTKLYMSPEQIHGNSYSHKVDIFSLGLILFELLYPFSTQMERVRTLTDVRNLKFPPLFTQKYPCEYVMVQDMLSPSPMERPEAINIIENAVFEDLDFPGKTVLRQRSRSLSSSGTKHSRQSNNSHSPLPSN

[5] = target: Serine/threonine-protein kinase MRCK beta (Homo sapiens) (UniProt Q9Y5S2); test: Inhibition of MRCKbeta in human PC3 cell lysates at 10 uM using desthiobiotin-tagged ATP probe AX9989 followed by trypsinization by LC/MS analysis; settings: PC-3
PC-3 = test: Inhibition of KHS2 in human PC3 cell lysates at 10 uM using desthiobiotin-tagged ATP probe AX9989 followed by trypsinization by LC/MS analysis; format: cell-free
[6] = target: Casein kinase I isoform alpha (Homo sapiens) (UniProt P48729); test: Inhibition of CK1alpha in human PC3 cell lysates at 10 uM using desthiobiotin-tagged ATP probe AX9989 followed by trypsinization by LC/MS analysis; settings: PC-3
Sequence of Casein kinase I isoform alpha (Homo sapiens) (P48729 2-337 limits assumed): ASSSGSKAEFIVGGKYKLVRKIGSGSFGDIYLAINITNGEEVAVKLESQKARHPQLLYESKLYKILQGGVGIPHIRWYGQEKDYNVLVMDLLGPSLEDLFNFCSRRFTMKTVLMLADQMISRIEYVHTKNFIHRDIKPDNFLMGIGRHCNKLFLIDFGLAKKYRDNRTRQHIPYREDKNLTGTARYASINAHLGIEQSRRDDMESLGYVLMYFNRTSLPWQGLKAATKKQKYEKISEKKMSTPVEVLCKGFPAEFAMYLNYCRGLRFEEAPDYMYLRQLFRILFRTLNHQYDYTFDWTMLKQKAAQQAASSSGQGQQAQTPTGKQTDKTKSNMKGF

[7] = target: Serine/threonine-protein kinase 10 (Homo sapiens) (UniProt O94804); test: Inhibition of LOK in human PC3 cell lysates at 10 uM using desthiobiotin-tagged ATP probe AX9989 followed by trypsinization by LC/MS analysis; settings: PC-3
[8] = target: AMPK alpha1/alpha2 (Homo sapiens) (UniProt P54646+Q13131); test: Inhibition of AMPKalpha1/AMPKalpha2 in human PC3 cell lysates at 10 uM using desthiobiotin-tagged ATP probe AX9989 followed by trypsinization by LC/MS analysis; format: protein-complex assay; settings: PC-3
Sequence of AMPK alpha1/alpha2 (Homo sapiens) (P54646 whole entry, looked up): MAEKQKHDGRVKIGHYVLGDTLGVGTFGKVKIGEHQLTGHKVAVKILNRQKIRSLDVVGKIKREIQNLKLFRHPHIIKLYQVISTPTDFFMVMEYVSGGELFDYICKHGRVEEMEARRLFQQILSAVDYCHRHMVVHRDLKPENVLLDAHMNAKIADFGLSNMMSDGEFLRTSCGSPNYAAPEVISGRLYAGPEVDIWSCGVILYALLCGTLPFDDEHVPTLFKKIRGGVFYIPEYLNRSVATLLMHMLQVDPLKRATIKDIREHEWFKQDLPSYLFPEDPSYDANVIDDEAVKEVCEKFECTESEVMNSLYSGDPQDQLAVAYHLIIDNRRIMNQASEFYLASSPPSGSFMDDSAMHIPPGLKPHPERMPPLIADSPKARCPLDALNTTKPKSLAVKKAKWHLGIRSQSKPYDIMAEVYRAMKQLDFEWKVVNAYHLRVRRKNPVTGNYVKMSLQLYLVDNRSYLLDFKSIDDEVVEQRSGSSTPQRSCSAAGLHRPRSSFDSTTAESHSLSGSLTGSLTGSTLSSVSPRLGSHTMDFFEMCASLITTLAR
Sequence of AMPK alpha1/alpha2 (Homo sapiens) (Q13131 whole entry, looked up): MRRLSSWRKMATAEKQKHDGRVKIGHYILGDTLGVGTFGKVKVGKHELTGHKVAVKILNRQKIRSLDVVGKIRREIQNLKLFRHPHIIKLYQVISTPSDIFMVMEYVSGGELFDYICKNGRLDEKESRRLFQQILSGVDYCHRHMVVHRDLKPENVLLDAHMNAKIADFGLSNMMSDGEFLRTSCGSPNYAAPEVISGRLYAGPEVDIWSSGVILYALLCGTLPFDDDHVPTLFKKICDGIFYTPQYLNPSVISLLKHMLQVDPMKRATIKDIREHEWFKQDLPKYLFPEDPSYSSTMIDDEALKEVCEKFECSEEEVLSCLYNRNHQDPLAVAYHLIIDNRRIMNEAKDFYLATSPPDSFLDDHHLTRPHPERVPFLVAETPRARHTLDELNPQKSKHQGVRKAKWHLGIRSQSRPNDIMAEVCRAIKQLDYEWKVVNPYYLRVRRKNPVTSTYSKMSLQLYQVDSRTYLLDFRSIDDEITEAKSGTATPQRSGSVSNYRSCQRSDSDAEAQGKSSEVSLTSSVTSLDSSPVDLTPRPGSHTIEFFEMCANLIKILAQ

[9] = target: Serine/threonine-protein kinase Chk2 (Homo sapiens) (UniProt O96017); test: Inhibition of CHK2 in human PC3 cell lysates at 10 uM using desthiobiotin-tagged ATP probe AX9989 followed by trypsinization by LC/MS analysis; settings: PC-3
Sequence of Serine/threonine-protein kinase Chk2 (Homo sapiens) (O96017 whole entry): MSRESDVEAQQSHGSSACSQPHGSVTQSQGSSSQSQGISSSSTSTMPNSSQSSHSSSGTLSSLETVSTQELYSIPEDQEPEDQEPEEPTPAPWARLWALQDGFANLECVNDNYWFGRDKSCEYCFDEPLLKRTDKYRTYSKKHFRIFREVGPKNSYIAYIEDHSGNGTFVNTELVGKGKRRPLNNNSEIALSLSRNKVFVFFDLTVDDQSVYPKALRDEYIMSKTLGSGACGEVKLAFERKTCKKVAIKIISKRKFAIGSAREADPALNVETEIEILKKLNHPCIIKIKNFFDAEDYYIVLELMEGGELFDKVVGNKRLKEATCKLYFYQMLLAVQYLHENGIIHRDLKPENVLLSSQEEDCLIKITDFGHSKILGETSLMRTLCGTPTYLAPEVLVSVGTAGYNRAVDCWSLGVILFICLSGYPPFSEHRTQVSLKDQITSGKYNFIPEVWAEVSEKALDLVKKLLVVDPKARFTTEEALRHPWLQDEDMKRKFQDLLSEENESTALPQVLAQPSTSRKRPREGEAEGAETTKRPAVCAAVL

[10] = target: STE20-like serine/threonine-protein kinase (Homo sapiens) (UniProt Q9H2G2); test: Inhibition of SLK in human PC3 cell lysates at 10 uM using desthiobiotin-tagged ATP probe AX9989 followed by trypsinization by LC/MS analysis; settings: PC-3
Sequence of STE20-like serine/threonine-protein kinase (Homo sapiens) (Q9H2G2 whole entry, looked up): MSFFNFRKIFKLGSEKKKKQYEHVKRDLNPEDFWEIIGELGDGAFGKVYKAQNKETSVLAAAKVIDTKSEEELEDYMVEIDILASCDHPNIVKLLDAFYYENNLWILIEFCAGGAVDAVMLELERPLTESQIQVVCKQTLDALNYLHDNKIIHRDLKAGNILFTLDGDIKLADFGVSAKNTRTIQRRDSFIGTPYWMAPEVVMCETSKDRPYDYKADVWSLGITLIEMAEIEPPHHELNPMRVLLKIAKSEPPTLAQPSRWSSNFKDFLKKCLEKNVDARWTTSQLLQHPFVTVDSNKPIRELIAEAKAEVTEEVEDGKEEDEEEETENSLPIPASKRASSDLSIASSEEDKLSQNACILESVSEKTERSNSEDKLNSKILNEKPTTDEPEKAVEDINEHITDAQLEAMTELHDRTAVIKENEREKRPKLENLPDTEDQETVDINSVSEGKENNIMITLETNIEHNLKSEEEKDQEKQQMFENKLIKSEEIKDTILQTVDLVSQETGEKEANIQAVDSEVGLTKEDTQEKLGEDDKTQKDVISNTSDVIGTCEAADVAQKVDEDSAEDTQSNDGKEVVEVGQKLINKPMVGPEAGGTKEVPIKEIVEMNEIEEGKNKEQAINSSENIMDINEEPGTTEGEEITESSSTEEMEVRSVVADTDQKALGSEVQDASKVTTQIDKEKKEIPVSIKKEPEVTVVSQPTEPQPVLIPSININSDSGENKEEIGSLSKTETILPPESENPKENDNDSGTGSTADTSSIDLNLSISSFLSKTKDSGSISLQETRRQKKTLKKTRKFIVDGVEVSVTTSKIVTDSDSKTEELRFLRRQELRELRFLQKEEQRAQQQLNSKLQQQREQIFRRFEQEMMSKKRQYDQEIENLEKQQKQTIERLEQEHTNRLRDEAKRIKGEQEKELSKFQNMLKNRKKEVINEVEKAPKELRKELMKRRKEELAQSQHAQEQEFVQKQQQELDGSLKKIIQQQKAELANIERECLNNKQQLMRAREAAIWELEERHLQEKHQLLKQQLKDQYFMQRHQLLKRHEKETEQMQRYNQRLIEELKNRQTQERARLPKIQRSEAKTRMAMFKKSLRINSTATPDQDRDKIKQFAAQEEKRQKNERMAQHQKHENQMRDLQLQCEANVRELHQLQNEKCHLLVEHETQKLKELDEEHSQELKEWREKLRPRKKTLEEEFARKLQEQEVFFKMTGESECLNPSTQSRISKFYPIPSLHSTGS

[11] = target: Mitogen-activated protein kinase 3 (Homo sapiens) (UniProt P27361); test: Inhibition of Erk1 in human PC3 cell lysates at 10 uM using desthiobiotin-tagged ATP probe AX9989 followed by trypsinization by LC/MS analysis; settings: PC-3
Sequence of Mitogen-activated protein kinase 3 (Homo sapiens) (P27361 whole entry): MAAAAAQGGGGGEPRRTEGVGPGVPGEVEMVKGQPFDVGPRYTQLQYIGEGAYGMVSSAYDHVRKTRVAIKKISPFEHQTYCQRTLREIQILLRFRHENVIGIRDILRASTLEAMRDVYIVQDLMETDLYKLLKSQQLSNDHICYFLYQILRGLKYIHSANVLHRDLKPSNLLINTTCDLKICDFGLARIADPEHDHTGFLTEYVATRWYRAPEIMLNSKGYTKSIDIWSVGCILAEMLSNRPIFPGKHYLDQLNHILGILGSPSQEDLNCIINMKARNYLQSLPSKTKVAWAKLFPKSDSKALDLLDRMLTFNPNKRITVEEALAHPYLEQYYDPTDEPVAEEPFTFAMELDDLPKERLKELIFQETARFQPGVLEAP

Measured: inhibition

Sequence of Tyrosine-protein kinase Fyn (Homo sapiens) (P06241 2-537 limits assumed): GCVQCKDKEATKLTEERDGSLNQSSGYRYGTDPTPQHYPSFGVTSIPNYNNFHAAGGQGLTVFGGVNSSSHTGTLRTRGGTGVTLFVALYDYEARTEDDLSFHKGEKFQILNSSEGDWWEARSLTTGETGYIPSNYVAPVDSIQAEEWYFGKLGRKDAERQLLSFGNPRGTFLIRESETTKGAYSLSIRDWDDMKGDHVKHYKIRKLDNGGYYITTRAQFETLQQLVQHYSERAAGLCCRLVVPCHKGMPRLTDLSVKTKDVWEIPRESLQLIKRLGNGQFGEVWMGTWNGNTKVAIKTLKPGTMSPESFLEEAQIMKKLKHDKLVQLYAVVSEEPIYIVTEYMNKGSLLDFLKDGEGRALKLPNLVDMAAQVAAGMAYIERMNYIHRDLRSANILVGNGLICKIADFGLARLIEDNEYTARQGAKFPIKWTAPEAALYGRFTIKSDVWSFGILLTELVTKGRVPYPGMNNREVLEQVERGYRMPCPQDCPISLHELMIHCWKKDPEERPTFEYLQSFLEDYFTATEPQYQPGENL

O=C(NC1(c2ccc(F)cc2)CC1)c1ccc2nc(N[C@H]3CC[C@H](O)CC3)c3nccn3c2c1
< 35%: [1] | [2] | [3] | [4] | [5] | PC-3 | [6] | [7] | [8] | [9] | [10] | [11]

O=C(NC1(Cc2ccc(F)cc2)CC1)c1ccc2nc(N[C@H]3CC[C@H](O)CC3)c3nccn3c2c1
< 35%: [1] | [2] | [3] | [4] | [5] | PC-3 | [6] | [7] | [8] | [9] | [10] | [11]
